# Experimental data from US5434246A, “Parathyroid hormone derivatives” (Takeda Chemical Industries, Ltd., priority 1992, dated 1995).
# Square brackets hold non-standard residues; d marks the D form. Ends that are not written are not given here. Peptide text beside a SMILES is read from it. hCit = NC(=O)NCCCC[C@H](N)C(=O)O
# Molecular target: T1, PTH receptor (Mus musculus, UniProt P41593)
# T1 construct: a mouse cranial bone-derived osteoblast-like cell strain, MC3T3-EI cells; endogenous in cells; host or cells: MC3T3-E1 mouse osteoblast-like cells
# T1 sequence (P41593 27-591): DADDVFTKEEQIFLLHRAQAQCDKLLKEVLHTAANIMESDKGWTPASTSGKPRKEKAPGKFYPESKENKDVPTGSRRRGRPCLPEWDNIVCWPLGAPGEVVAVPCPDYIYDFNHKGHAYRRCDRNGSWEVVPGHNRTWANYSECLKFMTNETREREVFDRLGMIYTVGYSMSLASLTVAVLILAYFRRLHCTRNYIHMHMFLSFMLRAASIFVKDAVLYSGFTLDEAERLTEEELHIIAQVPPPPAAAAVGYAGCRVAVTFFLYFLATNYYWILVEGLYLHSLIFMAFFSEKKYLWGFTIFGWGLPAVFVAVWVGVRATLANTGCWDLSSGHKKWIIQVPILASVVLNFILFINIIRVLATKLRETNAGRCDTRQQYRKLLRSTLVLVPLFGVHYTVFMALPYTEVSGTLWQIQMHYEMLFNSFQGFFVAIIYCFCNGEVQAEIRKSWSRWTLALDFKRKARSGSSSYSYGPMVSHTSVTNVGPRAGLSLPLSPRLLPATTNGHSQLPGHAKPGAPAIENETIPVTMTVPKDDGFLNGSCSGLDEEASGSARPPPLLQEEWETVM
# Test: cAMP production in MC3T3-EI osteoblast-like cells (biological activity of PTH(1-34) derivatives)
# Format: cell-based
# Conditions: 0.01-100 nM derivative, room temperature 30 minutes, hPTH(1-34) standard = 1.00
# Protocol: The biological activity of the PTH (1-34) derivatives was evaluated by a modified version of the method reported by Shigeno et al. in The Journal of Biological Chemistry 263, 18369-18377 (1988). A culture solution (Hank's solution, containing 20 mM N-2-hydroxyethylpiperazine-N'-2-ethanesulfonic acid-(HEPES), 0.1% bovine serum albumin and 0.5 mM isobutylmethyl-xanthine) containing a 0.01, 0.1, 1, 10 or 100 nM derivative was added in an amount of 100 μl to a mouse cranial bone-derived osteoblast-like cell strain, MC3T3-EI cells, cultivated on a 96-well multiplate (Nunclon, Nunc), followed by reaction at room temperature for 30 minutes. After addition of 100 μl of 0.2N hydrochloric acid, the mixture was immersed in boiling water for 2.5 minutes, and cyclic adenosine monophosphate (cAMP) produced by a PTH receptor was extracted from the cells. The total cAMP in the culture solution and the cells was assayed using a commercial radioimmunoassay kit (cyclic AMP [^125 I] kit "Du Pont-Daiichi", Daiichi Kagaku Yakuhin).
row,Compound,"Biological Activity, Represented by Relative Activity to hPTH(1-34)"
1,"SVSEIQLMHNLGKHKKKMERVEWLRKKLQDVHNF [[Lys^15,16,17]hPTH (1-34), [Lys^15,16,17]hPTH(1-34)]",7.62
2,"SVSEIQLMHNLGKHLNSMERVEWLQQQLQDVHNF [[Gln^25,26,27]hPTH (1-34), [Gln^25,26,27]hPTH(1-34)]",0.41
3,"SVSEIQLMHNLGKKKKKMERVEWLRKKLQDVHNF [[Lys^14,15,16,17]hPTH (1-34), [Lys^14,15,16,17]hPTH(1-34)]",6.39
4,CC[C@H](C)[C@H](NC(=O)[C@H](CCC(=O)O)NC(=O)[C@H](CO)NC(=O)[C@@H](NC(=O)[C@@H](N)CO)C(C)C)C(=O)N[C@@H](CCC(N)=O)C(=O)N[C@@H](CC(C)C)C(=O)N[C@@H](CCSC)C(=O)N[C@@H](Cc1c[nH]cn1)C(=O)N[C@@H](CC(N)=O)C(=O)N[C@@H](CC(C)C)C(=O)NCC(=O)N[C@@H](CCCCN)C(=O)N[C@@H](Cc1c[nH]cn1)C(=O)N[C@@H](CC(C)C)C(=O)N[C@@H](CCC(N)=O)C(=O)N[C@@H](CO)C(=O)N[C@@H](CCSC)C(=O)N[C@@H](CCC(=O)O)C(=O)N[C@@H](CCCNC(=N)N)C(=O)N[C@H](C(=O)N[C@@H](CCC(=O)O)C(=O)N[C@@H](Cc1c[nH]c2ccccc12)C(=O)N[C@@H](CC(C)C)C(=O)N[C@@H](CCCNC(=N)N)C(=O)N[C@@H](CCCCN)C(=O)N[C@@H](CCCCN)C(=O)N[C@@H](CC(C)C)C(=O)N[C@@H](CCC(N)=O)C(=O)N[C@@H](CC(=O)O)C(=O)N[C@H](C(=O)N[C@@H](Cc1c[nH]cn1)C(=O)N[C@@H](CC(N)=O)C(=O)N[C@@H](Cc1ccccc1)C(=O)O)C(C)C)C(C)C [[Gln^16]hPTH(1-34)],1.73
5,"SVSEIQLMHNLGKHLRSMERVEWLRKQLQDVHNF [[Arg^16,Gln^27]hPTH(1-34)]",2.16
6,CC[C@H](C)[C@H](NC(=O)[C@H](CCC(=O)O)NC(=O)[C@H](CO)NC(=O)[C@@H](NC(=O)[C@@H](N)CO)C(C)C)C(=O)N[C@@H](CCC(N)=O)C(=O)N[C@@H](CC(C)C)C(=O)N[C@@H](CCSC)C(=O)N[C@@H](Cc1c[nH]cn1)C(=O)N[C@@H](CC(N)=O)C(=O)N[C@@H](CC(C)C)C(=O)NCC(=O)N[C@@H](CCCCN)C(=O)N[C@@H](Cc1c[nH]cn1)C(=O)N[C@@H](CC(C)C)C(=O)N[C@@H](CCC(=O)O)C(=O)N[C@@H](CO)C(=O)N[C@@H](CCSC)C(=O)N[C@@H](CCC(=O)O)C(=O)N[C@@H](CCCNC(=N)N)C(=O)N[C@H](C(=O)N[C@@H](CCC(=O)O)C(=O)N[C@@H](Cc1c[nH]c2ccccc12)C(=O)N[C@@H](CC(C)C)C(=O)N[C@@H](CCCNC(=N)N)C(=O)N[C@@H](CCCCN)C(=O)N[C@@H](CCCCN)C(=O)N[C@@H](CC(C)C)C(=O)N[C@@H](CCC(N)=O)C(=O)N[C@@H](CC(=O)O)C(=O)N[C@H](C(=O)N[C@@H](Cc1c[nH]cn1)C(=O)N[C@@H](CC(N)=O)C(=O)N[C@@H](Cc1ccccc1)C(=O)O)C(C)C)C(C)C [[Glu^16]hPTH(1-34)],1.55
7,"SVSEIQLMHNLGKHLNSMERVEWLRRRLQDVHNF [[Arg^26,27]hPTH (1-34), [Arg^26,27]hPTH(1-34)]",0.98
8,"SVSEIQLMHNLGKHKKSMERVEWLRKHLQDVHNF [[Lys^15,16,His^27]hPTH(1-34)]",1.49
9,"SVSEIQLMHNLGKHLKKMERVEWLRKKLQDVHNF [[Lys^16,17]hPTH(1-34)]",8.85
10,"SVSEIQLMHNLGKHLNSMERVEWLRQQLQDVHNF [[Gln^26,27]hPTH(1-34)]",1.19
11,CC[C@H](C)[C@H](NC(=O)[C@H](CCC(=O)O)NC(=O)[C@H](CO)NC(=O)[C@@H](NC(=O)[C@@H](N)CO)C(C)C)C(=O)N[C@@H](CCC(N)=O)C(=O)N[C@@H](CC(C)C)C(=O)N[C@@H](CCSC)C(=O)N[C@@H](Cc1c[nH]cn1)C(=O)N[C@@H](CC(N)=O)C(=O)N[C@@H](CC(C)C)C(=O)NCC(=O)N[C@@H](CCCCN)C(=O)N[C@@H](Cc1c[nH]cn1)C(=O)N[C@@H](CC(C)C)C(=O)N[C@H](CCCCN)C(=O)N[C@@H](CO)C(=O)N[C@@H](CCSC)C(=O)N[C@@H](CCC(=O)O)C(=O)N[C@@H](CCCNC(=N)N)C(=O)N[C@H](C(=O)N[C@@H](CCC(=O)O)C(=O)N[C@@H](Cc1c[nH]c2ccccc12)C(=O)N[C@@H](CC(C)C)C(=O)N[C@@H](CCCNC(=N)N)C(=O)N[C@@H](CCCCN)C(=O)N[C@@H](CCCCN)C(=O)N[C@@H](CC(C)C)C(=O)N[C@@H](CCC(N)=O)C(=O)N[C@@H](CC(=O)O)C(=O)N[C@H](C(=O)N[C@@H](Cc1c[nH]cn1)C(=O)N[C@@H](CC(N)=O)C(=O)N[C@@H](Cc1ccccc1)C(=O)O)C(C)C)C(C)C [[D-Lys^16]hPTH(1-34)],0.86
12,"CC[C@H](C)[C@H](NC(=O)[C@H](CCC(=O)O)NC(=O)[C@H](CO)NC(=O)[C@@H](NC(=O)[C@@H](N)CO)C(C)C)C(=O)N[C@@H](CCC(N)=O)C(=O)N[C@@H](CC(C)C)C(=O)N[C@@H](CCSC)C(=O)N[C@@H](Cc1c[nH]cn1)C(=O)N[C@@H](CC(N)=O)C(=O)N[C@@H](CC(C)C)C(=O)NCC(=O)N[C@@H](CCCCN)C(=O)N[C@@H](Cc1c[nH]cn1)C(=O)N[C@@H](CC(C)C)C(=O)N[C@@H](CCCCNC(N)=O)C(=O)N[C@@H](CO)C(=O)N[C@@H](CCSC)C(=O)N[C@@H](CCC(=O)O)C(=O)N[C@@H](CCCNC(=N)N)C(=O)N[C@H](C(=O)N[C@@H](CCC(=O)O)C(=O)N[C@@H](Cc1c[nH]c2ccccc12)C(=O)N[C@@H](CC(C)C)C(=O)N[C@@H](CCCNC(=N)N)C(=O)N[C@@H](CCCCN)C(=O)N[C@@H](CCC(N)=O)C(=O)N[C@@H](CC(C)C)C(=O)N[C@@H](CCC(N)=O)C(=O)N[C@@H](CC(=O)O)C(=O)N[C@H](C(=O)N[C@@H](Cc1c[nH]cn1)C(=O)N[C@@H](CC(N)=O)C(=O)N[C@@H](Cc1ccccc1)C(=O)O)C(C)C)C(C)C [[Hci^16,Gln^27]hPTH(1-34)] (H-SVSEIQLMHNLGKHL[hCit]SMERVEWLRKQLQDVHNF-OH)",1.54
13,CC[C@H](C)[C@H](NC(=O)[C@H](CCC(=O)O)NC(=O)[C@H](CO)NC(=O)[C@@H](NC(=O)[C@@H](N)CO)C(C)C)C(=O)N[C@@H](CCC(N)=O)C(=O)N[C@@H](CC(C)C)C(=O)N[C@@H](CCSC)C(=O)N[C@@H](Cc1c[nH]cn1)C(=O)N[C@@H](CC(N)=O)C(=O)N[C@@H](CC(C)C)C(=O)NCC(=O)N[C@@H](CCCCN)C(=O)N[C@@H](Cc1c[nH]cn1)C(=O)N[C@@H](CC(C)C)C(=O)N[C@H](C(=O)N[C@@H](CO)C(=O)N[C@@H](CCSC)C(=O)N[C@@H](CCC(=O)O)C(=O)N[C@@H](CCCNC(=N)N)C(=O)N[C@H](C(=O)N[C@@H](CCC(=O)O)C(=O)N[C@@H](Cc1c[nH]c2ccccc12)C(=O)N[C@@H](CC(C)C)C(=O)N[C@@H](CCCNC(=N)N)C(=O)N[C@@H](CCCCN)C(=O)N[C@@H](CCCCN)C(=O)N[C@@H](CC(C)C)C(=O)N[C@@H](CCC(N)=O)C(=O)N[C@@H](CC(=O)O)C(=O)N[C@H](C(=O)N[C@@H](Cc1c[nH]cn1)C(=O)N[C@@H](CC(N)=O)C(=O)N[C@@H](Cc1ccccc1)C(=O)O)C(C)C)C(C)C)[C@@H](C)O [[Thr^16]hPTH(1-34)],1.74
